Our source for the IC50 values is ChEMBL document CHEMBL4825681, “Iron-Catalyzed Skeletal Conversion of Lathyrane to Premyrsinane Euphorbia Diterpenes and Their Cytotoxic Activities” (J Nat Prod, 2021).

Structures are written as SMILES.

The test system of the assay is 4T1. In words: Cytotoxicity against mouse 4T1 cells assessed as reduction in cell viability incubated for 24 hrs by MTT assay. Type of assay: functional, cell-based. The settings on record: 4T1, 24 h.
Usually IC50 stands for the point on the concentration scale where inhibition reaches its midpoint. As for `CC(=O)O[C@@H]1[C@H]2[C@@H](OC(=O)c3ccccc3)[C@@H](C)C[C@]2(OC(C)=O)C(=O)[C@@H](C)[C@@H]2[C@@H]3[C@H](CC[C@]21C)C3(C)C`, the 50% inhibitory concentration (IC50) came out at 2500 nM. The same measure for `CC(=O)O[C@@H]1[C@H]2[C@@H](OC(=O)c3ccccc3)[C@@H](C)C[C@]2(OC(C)=O)C(=O)[C@H](C)[C@@H]2[C@@H]3[C@H](CC[C@]21C)C3(C)C`: 8200 nM; for `C=C1CC[C@H]2[C@@H](/C=C(\C)C(=O)[C@@]3(OC(C)=O)C[C@H](C)[C@H](OC(=O)c4ccccc4)[C@@H]3[C@H]1OC(C)=O)C2(C)C`: more than 10000 nM; for `CC(=O)O[C@H]1C(=O)[C@@]2(C)[C@H]([C@H](OC(=O)c3ccccc3)[C@]3(O)C[C@H](OC(=O)[C@H](O)[C@@H](NC(=O)c4ccccc4)c4ccccc4)C(C)=C1C3(C)C)[C@]1(OC(C)=O)CO[C@@H]1C[C@@H]2O` [PACLITAXEL]: 800 nM.
